Measured values taken from ChEMBL document CHEMBL4616616, “Identification of a C3'-nitrile nucleoside analogue inhibitor of pancreatic cancer cell line growth” (Bioorg Med Chem Lett, 2020).
The source made the active and inactive calls. The rule behind the calls is not given here.

Tests used:
[1] = system: BXPC-3; assay: Antiproliferative activity against human BxPC3 cells harboring wild type KRAS and TP53 mutation assessed as cell killing incubated for 96 hrs by cell-titer-Glo 2.0 assay relative to control; type: functional
[2] = system: BXPC-3; assay: Antiproliferative activity against human BxPC3 cells harboring wild type KRAS and TP53 mutation assessed as inhibition of cell growth incubated for 96 hrs by cell-titer-Glo 2.0 assay; type: functional, cell-based; settings: BXPC-3, 96 h
[3] = system: Capan-2; assay: Antiproliferative activity against human Capan2 cells harboring TP53 and G12V KRAS mutations assessed as inhibition of cell growth incubated for 96 hrs by cell-titer-Glo assay; settings: Capan-2, 96 h
[4] = system: Capan-2; assay: Antiproliferative activity against human Capan2 cells harboring TP53 and G12V KRAS mutations assessed as cell killing incubated for 96 hrs by cell-titer-Glo 2.0 assay relative to control
[5] = system: BXPC-3; assay: Antiproliferative activity against human BxPC3 cells harboring wild type KRAS and TP53 mutation assessed as inhibition of cell growth at 25 uM incubated for 96 hrs by cell-titer-Glo 2.0 assay; type: functional, cell-based
[6] = system: Capan-2; assay: Antiproliferative activity against human Capan2 cells harboring TP53 and G12V KRAS mutations assessed as inhibition of cell growth at 25 uM incubated for 96 hrs by cell-titer-Glo 2.0 assay
[7] = system: BXPC-3; assay: Antiproliferative activity against human BxPC3 cells harboring wild type KRAS and TP53 mutation assessed as maximal inhibition of cell growth at 2.5 uM incubated for 96 hrs by cell-titer-Glo assay; type: functional, cell-based
[8] = system: Capan-2; assay: Antiproliferative activity against human Capan2 cells harboring TP53 and G12V KRAS mutations assessed as inhibition of cell growth incubated for 96 hrs by cell-titer-Glo 2.0 assay relative to control

## CC(C)OC(=O)[C@H](C)N[P@](=O)(OC[C@H]1O[C@@H](n2cnc3c(NCc4ccccc4)nc(Cl)nc32)[C@@H](F)[C@]1(C)CC#N)Oc1ccccc1
[1]
  Activity: 60%
[2]
  EC50: 12 µM
[3]
  EC50: 7 µM
[4]
  Activity: 80%

## C[C@]1(CC#N)[C@H](F)[C@H](n2cnc3c(N)nc(Cl)nc32)O[C@@H]1CO
[5]
  inhibition: inactive
[6]
  inhibition: inactive

## Nc1ccn([C@@H]2O[C@H](CO)[C@@H](O)C2(F)F)c(=O)n1 [GEMCITABINE]
[7]
  inhibition: Active
[8]
  Imax: 40%

## C[C@]1(CC#N)[C@H](F)[C@H](n2cnc3c(NCc4ccccc4)nc(Cl)nc32)O[C@@H]1CO
[1]
  Activity: 20%
